From ChEMBL document CHEMBL5543122, “Discovery of HC-7366: An Orally Bioavailable and Efficacious GCN2 Kinase Activator” (J Med Chem, 2024) come the findings set out here.

Each structure is given as a SMILES string. ≈ marks a conversion by molar mass, not a printed value.

Series [1] in a line: Unbound fraction in BALB/c mouse plasma at 3 mg/kg, po and 1 mg/kg, iv measured upto 24 hrs. Type of series: ADME, organism-based.
The nature of series [2]: Protein binding in HEK293 cells assessed as free fraction. The format is ADME, cell-based. The following applies: human.
Series [3] can be described thus: Intrinsic clearance in rat hepatocytes assessed per 10^4 cells at 1 uM measured upto 120 mins by UPLC-MS/MS analysis. As to conditions: 2 h. Type of series: ADME, cell-based, Hepatocyte.
The nature of series [4]: Half-life in Sprague-Dawley rat at 1 mg/kg, iv measured upto 24 hrs. Type of series: ADME, organism-based. As to conditions: in vivo.
The nature of series [5]: Unbound Cmax in Sprague-Dawley rat at 3 mg/kg, po measured upto 24 hrs. The following applies: in vivo. The format is ADME, organism-based.
The target in series [6] is T1, Dual specificity mitogen-activated protein kinase kinase 5 (Homo sapiens, UniProt Q13163).
T1 sequence (Q13163 whole entry): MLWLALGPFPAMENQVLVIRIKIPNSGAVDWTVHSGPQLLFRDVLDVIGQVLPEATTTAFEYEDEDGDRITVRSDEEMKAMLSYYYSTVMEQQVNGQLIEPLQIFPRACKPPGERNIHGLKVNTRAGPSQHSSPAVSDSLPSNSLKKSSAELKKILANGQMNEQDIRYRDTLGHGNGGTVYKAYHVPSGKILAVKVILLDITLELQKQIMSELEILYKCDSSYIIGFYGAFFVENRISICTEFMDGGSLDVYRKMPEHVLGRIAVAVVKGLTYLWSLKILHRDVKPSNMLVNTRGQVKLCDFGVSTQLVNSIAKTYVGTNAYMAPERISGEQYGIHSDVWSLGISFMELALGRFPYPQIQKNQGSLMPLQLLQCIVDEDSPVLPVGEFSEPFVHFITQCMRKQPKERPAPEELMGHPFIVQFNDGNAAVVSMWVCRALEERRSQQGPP
As to the kind of experiment: Inhibition of MAP2K5 in human MOLM16 cells. The format is cell-based.

Series [7] has as its target T2, Serine/threonine-protein kinase Nek1 (Homo sapiens, UniProt Q96PY6).
T2 sequence (Q96PY6 whole entry): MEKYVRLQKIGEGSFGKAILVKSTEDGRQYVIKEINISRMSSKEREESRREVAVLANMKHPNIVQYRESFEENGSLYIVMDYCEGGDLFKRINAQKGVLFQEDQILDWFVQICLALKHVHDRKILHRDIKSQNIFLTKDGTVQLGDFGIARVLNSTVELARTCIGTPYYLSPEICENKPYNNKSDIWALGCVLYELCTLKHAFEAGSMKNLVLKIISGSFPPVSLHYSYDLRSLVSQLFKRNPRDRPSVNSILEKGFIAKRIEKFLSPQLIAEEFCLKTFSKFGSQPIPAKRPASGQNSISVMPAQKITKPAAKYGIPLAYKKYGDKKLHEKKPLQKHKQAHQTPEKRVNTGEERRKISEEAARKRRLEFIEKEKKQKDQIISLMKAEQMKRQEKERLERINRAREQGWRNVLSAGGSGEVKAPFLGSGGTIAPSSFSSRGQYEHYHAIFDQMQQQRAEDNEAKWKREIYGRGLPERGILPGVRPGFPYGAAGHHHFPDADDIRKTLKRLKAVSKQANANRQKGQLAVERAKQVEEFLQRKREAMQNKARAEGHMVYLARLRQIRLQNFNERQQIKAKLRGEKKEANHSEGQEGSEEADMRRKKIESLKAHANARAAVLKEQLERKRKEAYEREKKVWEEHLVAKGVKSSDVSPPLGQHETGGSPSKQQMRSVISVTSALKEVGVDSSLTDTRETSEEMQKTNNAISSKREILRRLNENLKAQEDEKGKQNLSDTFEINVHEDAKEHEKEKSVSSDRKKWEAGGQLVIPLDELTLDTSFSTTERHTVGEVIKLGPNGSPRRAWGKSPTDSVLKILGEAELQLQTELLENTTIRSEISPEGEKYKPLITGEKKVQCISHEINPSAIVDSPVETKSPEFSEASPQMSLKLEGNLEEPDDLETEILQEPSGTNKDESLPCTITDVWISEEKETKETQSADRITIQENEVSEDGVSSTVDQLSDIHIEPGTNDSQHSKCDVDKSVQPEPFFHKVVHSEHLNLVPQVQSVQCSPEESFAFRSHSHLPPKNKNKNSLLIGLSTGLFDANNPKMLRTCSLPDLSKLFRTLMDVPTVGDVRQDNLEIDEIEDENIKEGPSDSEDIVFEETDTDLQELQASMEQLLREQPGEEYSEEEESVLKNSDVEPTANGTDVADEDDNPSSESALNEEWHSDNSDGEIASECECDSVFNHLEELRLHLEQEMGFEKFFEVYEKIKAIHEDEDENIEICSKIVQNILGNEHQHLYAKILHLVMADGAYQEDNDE
In words: Inhibition of NEK1 in human MOLM16 cells. The format is cell-based.

Series [8] is described as follows: Volume of distribution at steady state in BALB/c mouse at 3 mg/kg, po and 1 mg/kg, iv measured upto 24 hrs. Type of series: ADME, organism-based. The following applies: in vivo.
Series [9] can be described thus: Unbound volume of distribution at steady state in BALB/c mouse at 3 mg/kg, po and 1 mg/kg, iv measured upto 24 hrs. The format is ADME, organism-based. As to conditions: in vivo.
The nature of series [10]: Oral bioavailability in BALB/c mouse at 3 mg/kg measured upto 24 hrs. The format is ADME, organism-based. As to conditions: in vivo.
Series [11] is described as follows: Toxicity in BALB/c nude mouse xenografted with human HT-1080 cells assessed as change in body weight at 0.3 to 3 mg/kg administered twice a day for 14 days. Type of series: organism-based. The following applies: in vivo, 336 h, dose 0.3-3 mg/kg, time 14 day.
For series [12], the system named is HT-1080. In words: Antitumor activity against human HT-1080 cells xenografted in BALB/c nude mouse assessed as mean tumor growth inhibition at 0.3 mg/kg administered twice a day for 14 days. The format is functional. The following applies: HT-1080, 336 h, time 14 day, read-out: TGI. A general note: A xenograft is tissue or cells of one species grown in another, often human tumour cells in immunodeficient mice.

In series [13] the test system is HT-1080. As to the kind of experiment: Antitumor activity against human HT-1080 cells xenografted in BALB/c nude mouse assessed as mean tumor growth inhibition at 3 mg/kg administered twice a day for 14 days. Type of series: functional. The following applies: HT-1080, 336 h, time 14 day, read-out: TGI.
Series [14] in a line: Toxicity in BALB/c nude mouse xenografted with human MOLM16 cells assessed as change in body weight at 0.3 to 3 mg/kg administered twice a day for 17 days. The following applies: in vivo, 408 h, dose 0.3-3 mg/kg, time 17 day. The format is organism-based.
The nature of series [15]: Antitumor activity against human MOLM16 cells xenografted in BALB/c nude mouse assessed as tumor growth inhibition at 0.3 mg/kg administered twice a day for 17 days. Type of series: functional, MOLM-16. The following applies: MOLM16, 408 h, time 17 day, read-out: TGI.
A short description of series [16]: Antitumor activity against human MOLM16 cells xenografted in BALB/c nude mouse assessed as tumor growth inhibition at 3 mg/kg administered twice a day for 17 days. The format is functional, MOLM-16. As to conditions: MOLM16, 408 h, time 17 day, read-out: TGI.
A short description of series [17]: Unbound AUC in BALB/c mouse at 3 mg/kg, po measured upto 24 hrs. Type of series: ADME, organism-based. The following applies: in vivo.
Series [18] in a line: physchem. As to conditions: FaSSIF.
Description: Thermodynamic solubility in FaSSIF at 1 mg incubated for 24 hrs by UPLC-MS/MS analysis
Series [19] in a line: physchem. As to conditions: SGF.
Description: Thermodynamic solubility in SGF at 1 mg incubated for 24 hrs by UPLC-MS/MS analysis

Broadly, the fraction unbound is free concentration divided by total concentration. What is called half-life is how long it takes for the measured level to halve. What is called IC50 is the concentration that inhibits the measured activity by half. Usually thermodynamic solubility stands for the concentration in solution at equilibrium with solid. In turn, `CNC(=O)c1ncn2cc(-c3c(F)ccc(NS(=O)(=O)c4cc(Cl)cnc4OC)c3F)ncc12` had an unbound share (fraction unbound) at 24 h in series [1] of 0.002. In addition, in series [2], the fraction unbound is 0.35. For the same compound, the CLH in series [3] was found to be 3.5 µL/min. The same compound gave a half-life in series [4] of 6.3 h. The compound further gave a fCmax in [5] of 7.1 nM. The half-maximal inhibitory concentration (IC50) is 2.9 µM in series [6] and 9.3 µM in series [7]. For the same compound, the Vdss in series [8] was found to be 0.12 L/kg. The compound further displayed a fVdss in series [9] of 60 L/kg. The F in series [10] was determined as 66%. Besides, the Activity result in [11] and in series [14] was “Non-Toxic” throughout. The inhibition in vivo at 0.3 mg/kg was 18% in the series on HT-1080 [12] and 66% in [15]. Also, the results for the inhibition in vivo at 3 mg/kg (in the series on HT-1080 [13]; in series [16]) were 84% and 98%, respectively. Moreover, the fAUC in series [17] worked out at 0.13 µM·h. Also, the solubility (thermodynamic) at 24 h is 1.8 µM (≈ 0.916 µg/mL) in the series “physchem [18]” and 0.89 µM (≈ 0.453 µg/mL) in the series “physchem [19]”.
